Reference: patent publication US20250011809A1, “VIRAL VECTOR PRODUCTION” (Cell Therapy Catapult Limited, priority 2021, published 2025)
Values joined by “and” are separate entries in the source; they are usually repeats but may differ in a detail not shown here. Equal entries are not always repeated. Ends that are not written are not given here.

Experiments:
Type in all cases: cell-based, human
HEK293 cells = assay: Viability of adherent HEK293 cells after transfection with GFP reporter plasmid (Example 1); settings: 3 days after transfection with 50 ng GFP plasmid; RALA N:P10, PEIpro 3:1; FIG. 1
Procedure: HEK293 cells were seeded at a density of 1×10^5 cells per well on 24 well plates. 24 hrs later, cells were transfected with 50 ng of plasmid encoding a GFP reporter gene, either complexed with RALA (SEQ ID NO: 1) at N:P10 (14.5 μg of RALA is complexed per 1 μg of DNA) or using PEIpro at a 3:1 ratio. The cells were stained to assess cell viability after 3 days.

[1] = HEK293-F cell count and viability by flow cytometry after transfection in suspension culture (Example 5); design: viability at 24 h / viability at 48 h / viability at 72 h: concentration or dose not given beside the values; settings: human, HEK293-F cells in suspension culture (shake flasks); for viability at 24 h: 24 h post-transf; for viability at 48 h: 48 h post-transf; for viability at 72 h: 72 h post-transf
Procedure: (§1) HEK293-F cells were seeded into shake flasks with a 20 mL serum-free BalanCD medium at working volume at a cell concentration of 1×10^6/mL for lentiviral production and 2×10^6/mL for AAV production. Transfection with the plasmids for AAV1, AAV2, LV (two experimental replicates, LV1 and LV2) were carried out using PEI-Pro or RALA peptides as set out in Table 8 below.
(§2) The HEK293-F cell counts were determined using flow cytometry immediately prior to transfection, and then at 24 hrs, 48 hrs and 72 hrs post transfection.

HEK293-F cells = assay: as above; design: viability at 24 h / viability at 48 h / viability at 72 h: concentration or dose not given beside the values
Procedure: as §1, §2

[2] = AAV1 plasmids, 24 h post-transf
[3] = AAV1 plasmids, 48 h post-transf
[4] = AAV1 plasmids, 72 h post-transf
[5] = AAV2 plasmids, 24 h post-transf
[6] = AAV2 plasmids, 48 h post-transf

In the case of WEARLARALARALARHLARALARALRACEA [RALA], the “viability of adherent HEK293 cells” value (HEK293 cells) was “significantly greater”, the viability at 24 h ([1]; AAV1 plasmids) was 90% and the viability at 48 h ([1]; AAV1 plasmids) was 86.1%. It also gave a viability at 72 h ([1]; AAV1 plasmids) of 83.1%, a viability at 24 h ([1]; AAV2 plasmids) of 87.7% and a viability at 48 h ([1]; AAV2 plasmids) of 81.6%. It also gave a viability at 72 h ([1]; AAV2 plasmids) of 76%, a viability at 24 h ([1]; LV plasmids) of 92% and a viability at 48 h ([1]; LV plasmids) of 92%. The Count (HEK293-F cells; [2]) was 3.63E+06 and 3.52E+06, the Via % (HEK293-F cells; [2]) was 88.2% and the Count (HEK293-F cells; [3]) was 4.14E+06 and 3.39E+06. The Via % (HEK293-F cells; [3]) was 83.9%, the Count (HEK293-F cells; [4]) was 5.82E+06 and 5.55E+06 and the Via % (HEK293-F cells; [4]) was 82.5%. The Count (HEK293-F cells; [5]) was 3.57E+06 and 3.37E+06, the Via % (HEK293-F cells; [5]) was 89.1% and the Count (HEK293-F cells; [6]) was 3.81E+06 and 4.07E+06. For the same sequence, the Via % (HEK293-F cells; [6]) was 84.8%, the Via % (HEK293-F cells; AAV2 plasmids, 72 h post-transf) was 76.5% and the Count (HEK293-F cells; LV plasmids, 24 h post-transf) was 2.31E+06 and 2.05E+06. The Via % (HEK293-F cells; LV plasmids, 24 h post-transf) was 92.7%, the Count (HEK293-F cells; LV plasmids, 48 h post-transf) was 3.42E+06 and 2.83E+06 and the Via % (HEK293-F cells; LV plasmids, 48 h post-transf) was 88.6%. For the same sequence, the Via % (HEK293-F cells; LV plasmids, 72 h post-transf) was 89.6% and 86%.
